Measured values reported in ChEMBL document CHEMBL2331105, “Selective Cyp11B1 Inhibitors for the Treatment of Cortisol Dependent Diseases” (ACS Med Chem Lett, 2013).

How the values were obtained:
[1] = target: T1, Cytochrome P450 11B1, mitochondrial (Homo sapiens, UniProt P15538); assay: Inhibition of human CYP11B1 expressed in hamster V79MZ cells using [1,2-3H]11-deoxycorticosterone as substrate preincubated for 60 mins prior to substrate addition measured after 25 mins by HPLC analysis; assay type: cell-based
T1 sequence (P15538 whole entry): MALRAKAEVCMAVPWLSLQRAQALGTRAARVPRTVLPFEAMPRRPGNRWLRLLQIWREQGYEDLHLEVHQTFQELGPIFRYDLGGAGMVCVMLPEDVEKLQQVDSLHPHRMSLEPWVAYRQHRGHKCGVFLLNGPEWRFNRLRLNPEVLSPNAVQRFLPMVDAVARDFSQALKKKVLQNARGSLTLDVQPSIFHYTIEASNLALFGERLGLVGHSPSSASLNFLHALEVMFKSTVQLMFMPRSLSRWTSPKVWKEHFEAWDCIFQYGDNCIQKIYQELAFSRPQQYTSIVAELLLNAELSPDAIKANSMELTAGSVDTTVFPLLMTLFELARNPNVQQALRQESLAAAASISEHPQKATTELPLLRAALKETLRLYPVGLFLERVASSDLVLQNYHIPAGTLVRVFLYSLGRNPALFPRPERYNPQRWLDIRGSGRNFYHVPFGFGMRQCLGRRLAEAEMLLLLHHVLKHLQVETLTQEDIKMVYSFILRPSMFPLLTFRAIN

[2] = target: T2, Cytochrome P450 11B2, mitochondrial (Homo sapiens, UniProt P19099); assay: Inhibition of human CYP11B2 expressed in hamster V79MZ cells using [1,2-3H]11-deoxycorticosterone as substrate preincubated for 60 mins prior to substrate addition measured after 50 mins by HPLC analysis; assay type: cell-based
T2 sequence (P19099 whole entry): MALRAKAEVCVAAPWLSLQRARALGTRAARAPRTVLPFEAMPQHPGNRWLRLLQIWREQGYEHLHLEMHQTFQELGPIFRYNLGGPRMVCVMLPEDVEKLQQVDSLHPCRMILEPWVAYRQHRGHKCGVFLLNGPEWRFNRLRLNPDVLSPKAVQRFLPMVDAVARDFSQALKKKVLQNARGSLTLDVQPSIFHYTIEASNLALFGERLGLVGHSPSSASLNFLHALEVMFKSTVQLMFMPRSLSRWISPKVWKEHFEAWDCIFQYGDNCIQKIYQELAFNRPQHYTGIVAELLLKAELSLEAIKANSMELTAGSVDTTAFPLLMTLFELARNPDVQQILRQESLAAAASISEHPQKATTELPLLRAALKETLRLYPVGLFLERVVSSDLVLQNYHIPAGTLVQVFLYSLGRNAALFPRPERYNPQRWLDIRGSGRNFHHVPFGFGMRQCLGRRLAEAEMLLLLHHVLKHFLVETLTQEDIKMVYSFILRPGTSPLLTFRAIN

Work on `Fc1ccc(Cn2ccnc2)cn1` yielded an IC50 [1] of 72 nM and an IC50 [2] of 1740 nM.
